Source: patent publication US9527832B2, “Substituted condensed pyrimidine compounds” (GRÜNENTHAL GMBH, priority 2013, dated 2016)
“And” between values parts separate entries of the source, which are not always exact repeats. Equal values may be shown once. Read-outs that look alike come from different tables or passages of the source.

Legend:
human PDE4B1 = molecular target: T1, human PDE4B1 (Homo sapiens, UniProt Q07343); experiment: cAMP HTRF assay to determine the activity of hPDE4B1; type: biochemical; settings: for IC50: reported as ranges; for inhibition at 1 µM: Percentage inhibition of PDE4B at 1 μM test concentration
T1 construct: host or cells: Sf9 cells
Procedure, shortened: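 Sf9-expressed recombinant human PDE4B1 (4.8 U) in Tris-HCl/MgCl2/DTT/Tween 20 buffer pH 7.8, with cAMP at 40 nM final, 30 min at room temperature. Reaction stopped with IBMX 1 mM; remaining cAMP detected by HTRF (665/620 nm ratio). IC50 from eight-point dose-response, n=2.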

[1] = dose response measurements with eight concentrations, read-out: IC50

T1 sequence (Q07343 whole entry): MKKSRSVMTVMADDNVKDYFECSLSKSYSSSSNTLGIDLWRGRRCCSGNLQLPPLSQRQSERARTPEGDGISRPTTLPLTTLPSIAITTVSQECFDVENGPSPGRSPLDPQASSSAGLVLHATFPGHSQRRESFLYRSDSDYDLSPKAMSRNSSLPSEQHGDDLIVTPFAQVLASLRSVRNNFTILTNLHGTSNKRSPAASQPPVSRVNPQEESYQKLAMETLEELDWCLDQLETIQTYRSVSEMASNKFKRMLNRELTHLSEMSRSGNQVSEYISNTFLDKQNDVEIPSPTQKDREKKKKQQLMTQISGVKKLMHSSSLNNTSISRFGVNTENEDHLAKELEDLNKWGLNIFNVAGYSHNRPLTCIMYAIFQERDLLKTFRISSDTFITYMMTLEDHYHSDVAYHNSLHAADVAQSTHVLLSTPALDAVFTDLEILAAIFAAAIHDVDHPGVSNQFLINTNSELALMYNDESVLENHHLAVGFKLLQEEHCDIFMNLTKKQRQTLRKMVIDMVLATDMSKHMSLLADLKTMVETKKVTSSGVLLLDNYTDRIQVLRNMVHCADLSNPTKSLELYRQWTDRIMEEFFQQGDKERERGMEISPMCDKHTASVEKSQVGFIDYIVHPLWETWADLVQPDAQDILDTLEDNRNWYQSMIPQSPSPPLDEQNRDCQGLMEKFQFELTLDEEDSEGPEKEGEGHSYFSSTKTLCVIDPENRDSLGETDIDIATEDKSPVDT

melting point [°C]	inhibition at 1 µM (human PDE4B1) [%]	IC50 (human PDE4B1; [1])	SMILES	IC50 (human PDE4B1; IC50, dose response measurements with eight concentrations) [µM]
225 to 232			COc1ccc(-c2nc3c(c(N4CCc5c(OCC(=O)N(C)C)cccc54)n2)CS(=O)(=O)C3)cc1 [Compound No. 2-2, 2-((1-(2-(4-Methoxyphenyl)-6,6-dioxo-5,7-dihydro-thieno[3,4-d]pyrimidin-4-yl)-2,3-dihydro-1H-indol-4-yl)oxy)-N,N-dimethyl-acetamide]	
237 to 245			CN(C)C(=O)COc1cccc2c1CCN2c1nc(-c2cccc(F)c2)nc2c1CS(=O)(=O)C2 [Compound No. 2-4, 2-((1-(2-(3-Fluorophenyl)-6,6-dioxo-5,7-dihydro-thieno[3,4-d]pyrimidin-4-yl)-2,3-dihydro-1H-indol-4-yl)oxy)-N,N-dimethyl-acetamide]	
	104	< 0.1 µM	O=C(COc1ccc2c(c1)N(c1nc(-c3ccc(Cl)s3)nc3c1CS(=O)(=O)C3)CC2)N1CCC1 [Compound No. 2-124, 1-(Azetidin-1-yl)-2-((1-(2-(5-chlorothiophen-2-yl)-6,6-dioxido-5,7-dihydrothieno[3,4-d]pyrimidin-4-yl)indolin-6-yl)oxy)ethanone]	
	85	< 0.1 µM	O=C(COc1ccc2c(c1)N(c1nc(-c3ccc(Cl)s3)nc3c1CS(=O)(=O)C3)CC2)N1CCOCC1 [Compound No. 2-125, 2-((1-(2-(5-Chlorothiophen-2-yl)-6,6-dioxido-5,7-dihydrothieno[3,4-d]pyrimidin-4-yl)indolin-6-yl)oxy)-1-morpholinoethanone]	
	104	< 0.1 µM	O=C(COc1ccc2c(c1)N(c1nc(-c3ccc(Cl)s3)nc3c1CS(=O)(=O)C3)CC2)N1CCCC1 [Compound No. 2-126, 2-((1-(2-(5-Chlorothiophen-2-yl)-6,6-dioxido-5,7-dihydrothieno[3,4-d]pyrimidin-4-yl)indolin-6-yl)oxy)-1-(pyrrolidin-1-yl)ethanone]	
	43		O=C(COc1ccc2c(c1)N(c1nc(-c3ccc(Cl)s3)nc3c1CCC3)CC2)N1CCC1 [Compound No. 2-127, 1-(Azetidin-1-yl)-2-((1-(2-(5-chlorothiophen-2-yl)-6,7-dihydro-5H-cyclopenta[d]pyrimidin-4-yl)indolin-6-yl)oxy)ethanone]	
	85	0.1 to 1 µM	O=C(COc1ccc2c(c1)N(c1nc(-c3ccc(Cl)s3)nc3c1CCC3)CC2)N1CCOCC1 [Compound No. 2-128, 2-((1-(2-(5-Chlorothiophen-2-yl)-6,7-dihydro-5H-cyclopenta[d]pyrimidin-4-yl)indolin-6-yl)oxy)-1-morpholinoethanone]	
	87	< 0.1 µM	O=C(COc1ccc2c(c1)N(c1nc(-c3ccncc3)nc3c1CS(=O)(=O)C3)CC2)N1CCCC1 [Compound No. 2-130, 2-((1-(6,6-Dioxido-2-(pyridin-4-yl)-5,7-dihydrothieno[3,4-d]pyrimidin-4-yl)indolin-6-yl)oxy)-1-(pyrrolidin-1-yl)ethanone]	
	90	< 0.1 µM	O=C(COc1ccc2c(c1)N(c1nc(-c3ccncc3)nc3c1CS(=O)(=O)C3)CC2)N1CCC1 [Compound No. 2-131, 1-(Azetidin-1-yl)-2-((1-(6,6-dioxido-2-(pyridin-4-yl)-5,7-dihydrothieno[3,4-d]pyrimidin-4-yl)indolin-6-yl)oxy)ethanone]	
	91	< 0.1 µM	CN(C)C(=O)COc1ccc2c(c1)N(c1nc(-c3ccncc3)nc3c1CS(=O)(=O)C3)CC2 [Compound No. 2-132, 2-((1-(6,6-Dioxido-2-(pyridin-4-yl)-5,7-dihydrothieno[3,4-d]pyrimidin-4-yl)indolin-6-yl)oxy)-N,N-dimethylacetamide]	
	94	< 0.1 µM	O=C(COc1ccc2c(c1)N(c1nc(-c3ccncc3)nc3c1C[S+]([O-])C3)CC2)N1CCCC1 (stereo not drawn) [Compound No. 2-133, 2-((1-(6-Oxido-2-(pyridin-4-yl)-5,7-dihydrothieno[3,4-d]pyrimidin-4-yl)indolin-6-yl)oxy)-1-(pyrrolidin-1-yl)ethanone]	
	77	< 0.1 µM	O=C(COc1ccc2c(c1)N(c1nc(-c3ccncc3)nc3c1C[S+]([O-])C3)CC2)N1CCC1 (stereo not drawn) [Compound No. 2-134, 1-(Azetidin-1-yl)-2-((1-(6-oxido-2-(pyridin-4-yl)-5,7-dihydrothieno[3,4-d]pyrimidin-4-yl)indolin-6-yl)oxy)ethanone]	
	97	< 0.1 µM	CN(C)C(=O)COc1ccc2c(c1)N(c1nc(-c3ccncc3)nc3c1C[S+]([O-])C3)CC2 (stereo not drawn) [Compound No. 2-135, N,N-Dimethyl-2-((1-(6-oxido-2-(pyridin-4-yl)-5,7-dihydrothieno[3,4-d]pyrimidin-4-yl)indolin-6-yl)oxy)acetamide]	
	98	< 0.1 µM	CN(C)C(=O)COc1ccc2c(c1)N(c1nc(-c3cccnc3)nc3c1CS(=O)(=O)C3)CC2 [Compound No. 2-136, 2-((1-(6,6-Dioxido-2-(pyridin-3-yl)-5,7-dihydrothieno[3,4-d]pyrimidin-4-yl)indolin-6-yl)oxy)-N,N-dimethylacetamide]	
	97	< 0.1 µM	CN(C)C(=O)COc1ccc2c(c1)N(c1nc(-c3cccnc3)nc3c1C[S+]([O-])C3)CC2 (stereo not drawn) [Compound No. 2-137, N,N-Dimethyl-2-((1-(6-oxido-2-(pyridin-3-yl)-5,7-dihydrothieno[3,4-d]pyrimidin-4-yl)indolin-6-yl)oxy)acetamide]	
		< 0.1 µM	COc1ccc(-c2nc3c(c(N4CCc5ccc(OCC(=O)N(C)C)cc54)n2)C[S+]([O-])C3)cn1 (stereo not drawn) [Compound No. 2-139, 2-((1-(2-(6-Methoxypyridin-3-yl)-6-oxido-5,7-dihydrothieno[3,4-d]pyrimidin-4-yl)indolin-6-yl)oxy)-N,N-dimethylacetamide]	
	95	< 0.1 µM	Cc1ncc(-c2nc3c(c(N4CCc5ccc(OCC(=O)N(C)C)cc54)n2)C[S+]([O-])C3)s1 (stereo not drawn) [Compound No. 2-140, N,N-Dimethyl-2-((1-(2-(2-methylthiazol-5-yl)-6-oxido-5,7-dihydrothieno[3,4-d]pyrimidin-4-yl)indolin-6-yl)oxy)acetamide]	
	98	< 0.1 µM	COc1ccc(-c2nc3c(c(N4CCc5ccc(OCC(=O)N(C)C)cc54)n2)C[S+]([O-])C3)nc1 (stereo not drawn) [Compound No. 2-141, 2-((1-(2-(5-Methoxypyridin-2-yl)-6-oxido-5,7-dihydrothieno[3,4-d]pyrimidin-4-yl)indolin-6-yl)oxy)-N,N-dimethylacetamide]	
	87	0.1 to 1 µM and < 0.1 µM	COc1ccc(-c2nc3c(c(N4CCc5ccc(OCC(=O)N(C)C)cc54)n2)CS(=O)(=O)C3)nc1 [Compound No. 2-143, 2-((1-(2-(5-Methoxypyridin-2-yl)-6,6-dioxido-5,7-dihydrothieno[3,4-d]pyrimidin-4-yl)indolin-6-yl)oxy)-N,N-dimethylacetamide]	
		0.1 to 1 µM	N#CCOc1ccc2c(c1)N(c1nc(-c3ccc(Cl)s3)nc3c1CS(=O)(=O)C3)CC2 [Compound No. 3-1, 2-((1-(2-(5-Chlorothiophen-2-yl)-6,6-dioxido-5,7-dihydrothieno[3,4-d]pyrimidin-4-yl)indolin-6-yl)oxy)acetonitrile]	
		0.1 to 1 µM	CN(C)CCOc1ccc2c(c1)N(c1nc(-c3ccc(Cl)s3)nc3c1CS(=O)(=O)C3)CC2 [Compound No. 3-3, 2-(5-Chlorothiophen-2-yl)-4-(6-(2-(dimethylamino)ethoxy)indolin-1-yl)-5,7-dihydrothieno[3,4-d]pyrimidine 6,6-dioxide]	
		0.1 to 1 µM	CCNC(=O)Cc1ccc2c(c1)CCN2c1nc(-c2ccc(Cl)s2)nc2c1CS(=O)(=O)C2 [Compound No. 3-4, 2-(1-(2-(5-Chlorothiophen-2-yl)-6,6-dioxido-5,7-dihydrothieno[3,4-d]pyrimidin-4-yl)indolin-5-yl)-N-ethylacetamide]	
		0.1 to 1 µM	CNC(=O)Cc1ccc2c(c1)CCN2c1nc(-c2ccc(Cl)s2)nc2c1CS(=O)(=O)C2 [Compound No. 3-5, 2-(1-(2-(5-Chlorothiophen-2-yl)-6,6-dioxido-5,7-dihydrothieno[3,4-d]pyrimidin-4-yl)indolin-5-yl)-N-methylacetamide]	
	103	< 0.1 µM	NC(=O)Cc1ccc2c(c1)CCN2c1nc(-c2ccc(Cl)s2)nc2c1CS(=O)(=O)C2 [Compound No. 3-6, 2-(1-(2-(5-Chlorothiophen-2-yl)-6,6-dioxido-5,7-dihydrothieno[3,4-d]pyrimidin-4-yl)indolin-5-yl)acetamide]	
	48		CN(C)CCOc1ccc2c(c1)N(c1nc(-c3ccc(Cl)s3)nc3c1CCC3)CC2 [Compound No. 3-7, 2-((1-(2-(5-Chlorothiophen-2-yl)-6,7-dihydro-5H-cyclopenta[d]-pyrimidin-4-yl)indolin-6-yl)oxy)-N,N-dimethylethanamine]	
	32		CN(C)C(=O)Cc1ccc2c(c1)CCN2c1nc(-c2ccc(Cl)s2)nc2c1CS(=O)(=O)C2 [Compound No. 3-8, 2-(1-(2-(5-Chlorothiophen-2-yl)-6,6-dioxido-5,7-dihydrothieno[3,4-d]pyrimidin-4-yl)indolin-5-yl)-N,N-dimethylacetamide]	

SMILES	melting point [°C]	inhibition at 1 µM (human PDE4B1) [%]	IC50 (human PDE4B1; [1])	IC50 (human PDE4B1; IC50, dose response measurements with eight concentrations) [µM]
CN1CCN(C(=O)COc2ccc3c(c2)N(c2nc(-c4ccc(Cl)s4)nc4c2CS(=O)(=O)C4)CC3)CC1 [Compound No. 2-123, 2-((1-(2-(5-Chlorothiophen-2-yl)-6,6-dioxido-5,7-dihydrothieno[3,4-d]pyrimidin-4-yl)indolin-6-yl)oxy)-1-(4-methylpiperazin-1-yl) ethanone]		95		< 0.1
CN1CCN(C(=O)COc2ccc3c(c2)N(c2nc(-c4ccc(Cl)s4)nc4c2CCC4)CC3)CC1 [Compound No. 2-129, 2-((1-(2-(5-Chlorothiophen-2-yl)-6,7-dihydro-5H-cyclopenta[d]pyrimidin-4-yl)indolin-6-yl)oxy)-1-(4-methylpiperazin-1-yl)ethanone]		48		
